Results: ChEMBL document CHEMBL1909046, “DrugMatrix in vitro pharmacology data”

Legend:
[1] = target: T1, Endothelin-1 receptor (Homo sapiens, UniProt P25101); format: cell membranes, CHO-K1, Membrane; conditions: cho-k1; further: in other assays of this panel Not Active means under 50% inhibition at 10 µM
T1 sequence (P25101 whole entry): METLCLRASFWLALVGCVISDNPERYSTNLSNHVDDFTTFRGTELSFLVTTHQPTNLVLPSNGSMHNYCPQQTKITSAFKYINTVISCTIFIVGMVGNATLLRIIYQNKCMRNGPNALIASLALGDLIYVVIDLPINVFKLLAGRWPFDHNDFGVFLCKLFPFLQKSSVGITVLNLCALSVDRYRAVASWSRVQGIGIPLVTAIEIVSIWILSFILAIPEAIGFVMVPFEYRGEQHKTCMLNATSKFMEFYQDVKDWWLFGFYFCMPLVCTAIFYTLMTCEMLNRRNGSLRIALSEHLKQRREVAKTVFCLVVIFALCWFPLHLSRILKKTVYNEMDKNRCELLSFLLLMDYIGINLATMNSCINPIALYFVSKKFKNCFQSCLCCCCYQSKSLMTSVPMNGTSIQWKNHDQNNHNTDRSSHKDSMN

[2] = target: 5-hydroxytryptamine receptor 4 (Cavia porcellus, UniProt O70528); format: cell membranes, Dunkin-Hartley, Striatum, Membrane; further: in other assays of this panel Not Active means under 50% inhibition at 10 µM
5-hydroxytryptamine receptor 4, sequence (O70528 whole entry): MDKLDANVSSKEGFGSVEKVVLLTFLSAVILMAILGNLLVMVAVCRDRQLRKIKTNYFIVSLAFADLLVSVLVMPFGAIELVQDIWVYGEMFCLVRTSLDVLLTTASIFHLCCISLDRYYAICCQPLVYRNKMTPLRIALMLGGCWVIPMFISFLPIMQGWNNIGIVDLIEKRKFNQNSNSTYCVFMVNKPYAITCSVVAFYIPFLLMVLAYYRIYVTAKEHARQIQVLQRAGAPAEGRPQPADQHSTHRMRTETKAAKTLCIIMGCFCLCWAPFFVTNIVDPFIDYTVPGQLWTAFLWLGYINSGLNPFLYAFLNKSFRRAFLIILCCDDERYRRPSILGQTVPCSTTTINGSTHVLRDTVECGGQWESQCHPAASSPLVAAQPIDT

[3] = target: Voltage-gated inwardly rectifying potassium channel KCNH2 (Homo sapiens, UniProt Q12809); conditions: hek293; further: in other assays of this panel Not Active means under 50% inhibition at 10 µM
Voltage-gated inwardly rectifying potassium channel KCNH2, sequence (Q12809 whole entry): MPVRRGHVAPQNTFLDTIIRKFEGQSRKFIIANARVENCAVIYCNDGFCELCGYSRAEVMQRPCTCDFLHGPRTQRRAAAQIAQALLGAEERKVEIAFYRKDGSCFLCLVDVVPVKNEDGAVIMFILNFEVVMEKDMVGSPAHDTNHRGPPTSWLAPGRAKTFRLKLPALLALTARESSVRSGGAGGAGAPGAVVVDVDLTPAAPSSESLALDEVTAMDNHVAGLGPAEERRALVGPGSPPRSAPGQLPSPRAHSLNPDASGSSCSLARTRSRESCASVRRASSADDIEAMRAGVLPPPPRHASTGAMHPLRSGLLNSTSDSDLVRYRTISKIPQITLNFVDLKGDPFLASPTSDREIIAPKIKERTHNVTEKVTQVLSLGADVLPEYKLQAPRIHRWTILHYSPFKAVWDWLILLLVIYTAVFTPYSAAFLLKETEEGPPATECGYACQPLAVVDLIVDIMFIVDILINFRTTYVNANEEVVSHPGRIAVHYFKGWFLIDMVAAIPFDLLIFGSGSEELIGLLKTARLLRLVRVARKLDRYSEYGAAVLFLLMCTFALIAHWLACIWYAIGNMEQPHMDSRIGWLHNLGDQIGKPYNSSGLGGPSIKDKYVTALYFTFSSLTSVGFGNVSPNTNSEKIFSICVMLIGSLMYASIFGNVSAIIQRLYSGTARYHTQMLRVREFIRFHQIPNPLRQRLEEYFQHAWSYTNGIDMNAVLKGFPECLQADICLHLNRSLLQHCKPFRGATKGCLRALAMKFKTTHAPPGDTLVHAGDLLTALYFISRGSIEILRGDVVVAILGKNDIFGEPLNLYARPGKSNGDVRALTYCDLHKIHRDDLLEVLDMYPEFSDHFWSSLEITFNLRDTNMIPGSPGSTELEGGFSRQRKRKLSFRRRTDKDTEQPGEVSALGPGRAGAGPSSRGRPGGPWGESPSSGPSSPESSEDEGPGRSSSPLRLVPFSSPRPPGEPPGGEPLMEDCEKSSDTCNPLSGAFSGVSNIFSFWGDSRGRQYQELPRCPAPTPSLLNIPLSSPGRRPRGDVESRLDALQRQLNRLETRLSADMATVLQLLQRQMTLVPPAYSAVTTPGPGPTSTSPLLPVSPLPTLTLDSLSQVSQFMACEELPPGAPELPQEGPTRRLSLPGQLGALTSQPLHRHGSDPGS

[4] = target: T2, 5-hydroxytryptamine receptor 1A (Rattus norvegicus, UniProt P19327); format: cell membranes, CHO-K1, Membrane; further: in other assays of this panel Not Active means under 50% inhibition at 10 µM
T2 sequence (P19327 whole entry): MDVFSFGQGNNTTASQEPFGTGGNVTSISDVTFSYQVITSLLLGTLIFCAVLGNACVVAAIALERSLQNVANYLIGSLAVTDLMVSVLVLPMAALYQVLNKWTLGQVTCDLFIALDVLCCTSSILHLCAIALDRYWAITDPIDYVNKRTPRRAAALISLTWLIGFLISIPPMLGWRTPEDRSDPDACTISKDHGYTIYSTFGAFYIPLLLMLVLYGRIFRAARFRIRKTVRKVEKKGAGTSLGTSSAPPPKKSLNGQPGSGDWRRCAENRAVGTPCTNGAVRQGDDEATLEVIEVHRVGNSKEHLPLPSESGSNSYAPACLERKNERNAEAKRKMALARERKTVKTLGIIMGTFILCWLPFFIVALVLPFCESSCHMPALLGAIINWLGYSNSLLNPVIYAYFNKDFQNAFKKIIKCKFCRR

[5] = target: T3, Vasoactive intestinal polypeptide receptor 1 (Homo sapiens, UniProt P32241); format: cell membranes, Membrane; conditions: ht-29; further: in other assays of this panel Not Active means under 50% inhibition at 10 µM
T3 sequence (P32241 whole entry): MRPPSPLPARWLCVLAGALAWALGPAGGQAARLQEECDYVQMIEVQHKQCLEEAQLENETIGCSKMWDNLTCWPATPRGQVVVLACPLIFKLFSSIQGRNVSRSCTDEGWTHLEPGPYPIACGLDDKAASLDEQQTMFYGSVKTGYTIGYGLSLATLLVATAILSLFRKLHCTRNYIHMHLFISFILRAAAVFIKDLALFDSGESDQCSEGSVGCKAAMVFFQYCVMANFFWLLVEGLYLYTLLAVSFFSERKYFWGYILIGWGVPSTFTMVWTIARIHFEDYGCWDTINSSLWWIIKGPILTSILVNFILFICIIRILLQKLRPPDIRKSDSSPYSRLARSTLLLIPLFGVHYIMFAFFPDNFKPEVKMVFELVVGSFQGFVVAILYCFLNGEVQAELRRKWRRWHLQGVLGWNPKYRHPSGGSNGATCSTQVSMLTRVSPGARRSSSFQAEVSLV

[6] = DRUGMATRIX: Purinergic P2X radioligand binding (ligand: [3H] alpha, beta-Methylene-ATP); format: cell membranes, Oryctolagus cuniculus, New Zealand albino, Urinary bladder, Membrane; conditions: Not Active = under 50% inhibition at 10 µM
[7] = target: Cytochrome P450 2C19 (Homo sapiens, UniProt P33261); conditions: bti-tn-5b1-4; further: in other assays of this panel Not Active means under 50% inhibition at 10 µM
Cytochrome P450 2C19, sequence (P33261 whole entry): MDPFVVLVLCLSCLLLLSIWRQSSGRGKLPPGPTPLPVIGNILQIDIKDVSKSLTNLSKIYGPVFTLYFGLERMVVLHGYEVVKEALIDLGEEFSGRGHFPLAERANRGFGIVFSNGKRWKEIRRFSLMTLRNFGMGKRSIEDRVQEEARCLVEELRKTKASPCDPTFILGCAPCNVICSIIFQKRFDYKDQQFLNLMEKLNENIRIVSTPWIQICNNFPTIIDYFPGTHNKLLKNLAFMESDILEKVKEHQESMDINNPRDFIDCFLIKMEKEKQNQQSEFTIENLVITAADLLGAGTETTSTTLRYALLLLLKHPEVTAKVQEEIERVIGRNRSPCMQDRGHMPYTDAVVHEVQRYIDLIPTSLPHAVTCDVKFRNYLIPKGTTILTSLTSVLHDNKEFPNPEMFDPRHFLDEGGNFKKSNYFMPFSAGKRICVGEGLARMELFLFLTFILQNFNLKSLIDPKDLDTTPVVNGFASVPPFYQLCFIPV

[8] = DRUGMATRIX: Interleukin IL-1 radioligand binding (ligand: [125I] interleukin 1beta); format: cell membranes, Membrane; conditions: nih3t3; Not Active = under 50% inhibition at 10 µM

Compound	IC50 [1]	IC50 [2]	IC50 [3]	Ki [3]	IC50 ([4]; cho-k1)	IC50 [5]	IC50 [6]	Ki [6]	IC50 [7]	Ki [7]	IC50 [8]	Ki [8]	IC50 ([2]; read-out: IC50) [nM]	Ki ([2]; read-out: Ki) [nM]	IC50 ([4]; read-out: IC50) [nM]	Ki ([4]; read-out: Ki) [nM]
Nn1nnc2ccccc21	Not Active	Not Active	Not Active	Not Active	Not Active	Not Active	Not Active	Not Active	Not Active	Not Active	Not Active	Not Active	–	–	–	–
CC[C@]1(O)CC[C@H]2[C@@H]3CCC4=CCCC[C@@H]4[C@H]3CC[C@@]21C	Not Active	Not Active	Not Active	Not Active	Not Active	Not Active	Not Active	Not Active	–	–	Not Active	Not Active	–	–	–	–
N[C@@H](Cc1ccc(F)cc1)C(=O)O	Not Active	Not Active	Not Active	Not Active	Not Active	Not Active	Not Active	Not Active	–	–	Not Active	Not Active	–	–	–	–
CCOC(=O)[C@H](CCc1ccccc1)N[C@@H](C)C(=O)N1Cc2ccccc2C[C@H]1C(=O)O	Not Active	Not Active	Not Active	Not Active	Not Active	Not Active	Not Active	Not Active	Not Active	Not Active	Not Active	Not Active	–	–	–	–
O=C(c1ccccc1Cl)N1CCC(Cc2ccccc2)CC1	Not Active	Not Active	Not Active	Not Active	Not Active	Not Active	Not Active	Not Active	–	–	Not Active	Not Active	–	–	–	–
CCOC(=O)[C@H](CCc1ccccc1)N[C@@H](C)C(=O)N1CCC[C@H]1C(=O)O	Not Active	Not Active	Not Active	Not Active	Not Active	Not Active	Not Active	Not Active	Not Active	Not Active	Not Active	Not Active	–	–	–	–
Clc1cc2c(cc1Cl)Oc1cc(Cl)c(Cl)cc1O2 [2,3,7,8-TETRACHLORODIBENZO-P-DIOXIN]	Not Active	Not Active	Not Active	Not Active	Not Active	Not Active	Not Active	Not Active	Not Active	Not Active	Not Active	Not Active	–	–	–	–
C[C@@H]1CC[C@H]2[C@@H](C)C(=O)O[C@@H]3O[C@@]4(C)CC[C@@H]1[C@]32OO4 [ARTEMISININ]	Not Active	Not Active	Not Active	Not Active	Not Active	Not Active	Not Active	Not Active	–	–	Not Active	Not Active	–	–	–	–
CCC[C@@H]1C[C@@H](C(=O)N[C@@H]([C@H]2O[C@H](SC)[C@H](O)[C@@H](O)[C@H]2O)[C@H](C)Cl)N(C)C1 [CLINDAMYCIN]	Not Active	Not Active	–	–	Not Active	Not Active	Not Active	Not Active	–	–	Not Active	Not Active	–	–	–	–
CN1C(=O)CN=C(c2ccccc2)c2cc(Cl)ccc21 [DIAZEPAM]	Not Active	Not Active	–	–	Not Active	Not Active	Not Active	Not Active	–	–	Not Active	Not Active	–	–	–	–
CN1C[C@H](C(=O)N[C@]2(C)O[C@@]3(O)[C@@H]4CCCN4C(=O)[C@H](Cc4ccccc4)N3C2=O)C[C@@H]2c3cccc4[nH]cc(c34)C[C@H]21 [DIHYDROERGOTAMINE]	Not Active	–	Not Active	Not Active	–	Not Active	Not Active	Not Active	–	–	Not Active	Not Active	940	157	0.659	0.377
O=C(O)Cc1ccc(-c2ccccc2)cc1 [FELBINAC]	Not Active	Not Active	Not Active	Not Active	Not Active	Not Active	Not Active	Not Active	–	–	Not Active	Not Active	–	–	–	–
CCOC(=O)C1=C(C)NC(C)=C(C(=O)OC)C1c1cccc(Cl)c1Cl (stereo not drawn) [FELODIPINE]	Not Active	Not Active	Not Active	Not Active	Not Active	Not Active	Not Active	Not Active	–	–	Not Active	Not Active	–	–	–	–
Cc1cn[nH]c1 [FOMEPIZOLE]	Not Active	Not Active	Not Active	Not Active	Not Active	Not Active	Not Active	Not Active	–	–	Not Active	Not Active	–	–	–	–
Cc1cnc(C(=O)NCCc2ccc(S(=O)(=O)NC(=O)NC3CCCCC3)cc2)cn1 [GLIPIZIDE]	Not Active	Not Active	–	–	Not Active	Not Active	Not Active	Not Active	–	–	Not Active	Not Active	–	–	–	–
COc1ccccc1OCC(O)CO (stereo not drawn) [GUAIFENESIN]	Not Active	Not Active	Not Active	Not Active	Not Active	Not Active	Not Active	Not Active	–	–	Not Active	Not Active	–	–	–	–
C/C=C\c1ccc(O)c(OC)c1 [ISOEUGENOL]	Not Active	Not Active	–	–	Not Active	Not Active	Not Active	Not Active	–	–	Not Active	Not Active	–	–	–	–
CC[C@H](C)C(=O)O[C@H]1C[C@@H](C)C=C2C=C[C@H](C)[C@H](CC[C@@H]3C[C@@H](O)CC(=O)O3)[C@H]21 [LOVASTATIN]	Not Active	Not Active	–	–	Not Active	Not Active	Not Active	Not Active	–	–	Not Active	Not Active	–	–	–	–
CNC(=C[N+](=O)[O-])NCCSCc1csc(CN(C)C)n1 [NIZATIDINE]	Not Active	Not Active	Not Active	Not Active	Not Active	Not Active	Not Active	Not Active	–	–	Not Active	Not Active	–	–	–	–
COc1ccc(Cc2nccc3cc(OC)c(OC)cc23)cc1OC [PAPAVERINE]	Not Active	Not Active	Not Active	Not Active	Not Active	Not Active	Not Active	Not Active	–	–	Not Active	Not Active	–	–	–	–
OCCN1CCN(CCCN2c3ccccc3Sc3ccc(Cl)cc32)CC1 [PERPHENAZINE]	Not Active	Not Active	–	–	Not Active	Not Active	Not Active	Not Active	–	–	Not Active	Not Active	–	–	–	–
CC(C)(Sc1cc(C(C)(C)C)c(O)c(C(C)(C)C)c1)Sc1cc(C(C)(C)C)c(O)c(C(C)(C)C)c1 [PROBUCOL]	Not Active	Not Active	Not Active	Not Active	Not Active	Not Active	Not Active	Not Active	–	–	Not Active	Not Active	–	–	–	–
